Results as given in PubChem BioAssay (NCI).
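Exposure lasted 48 hours, with cells grown in 96-well plates and compounds tested at five concentrations. At the GI50, growth is halved. Definition used: TGI = concentration required for complete inhibition of growth.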

Assays:
Assay in all cases: DTP human tumour cell line panel, 48 h
[1] = system: 786-0 renal
[2] = system: A498 renal
[3] = system: A549 NSCLC
[4] = system: ACHN renal
[5] = system: BT-549 breast
[6] = system: CAKI-1 renal
[7] = system: CCRF-CEM leukemia
[8] = system: COLO 205 colon
[9] = system: DU-145 prostate
[10] = system: EKVX NSCLC
[11] = system: HCC-2998 colon
[12] = system: HCT-116 colon
[13] = system: HL-60(TB) leukemia
[14] = system: HOP-62 NSCLC
[15] = system: HOP-92 NSCLC
[16] = system: HS 578T breast
[17] = system: HT29 colon
[18] = system: IGROV1 ovarian
[19] = system: K-562 leukemia
[20] = system: KM12 colon
[21] = system: LOX IMVI melanoma
[22] = system: M14 melanoma
[23] = system: MALME-3M melanoma
[24] = system: MCF7 breast
[25] = system: MDA-MB-231 breast
[26] = system: MDA-MB-435
[27] = system: MOLT-4 leukemia
[28] = system: NCI-H23 lung
[29] = system: NCI-H460 lung
[30] = system: NCI-H522 lung
[31] = system: NCI/ADR-RES ovarian
[32] = system: OVCAR-3 ovarian
[33] = system: OVCAR-4 ovarian
[34] = system: OVCAR-5 ovarian
[35] = system: OVCAR-8 ovarian
[36] = system: PC-3 prostate
[37] = system: RPMI-8226 leukemia
[38] = system: RXF 393 renal
[39] = system: SF-268 CNS
[40] = system: SF-295 CNS
[41] = system: SF-539 CNS
[42] = system: SK-MEL-28 melanoma
[43] = system: SK-MEL-5 melanoma
[44] = system: SN12C renal
[45] = system: SNB-19 CNS
[46] = system: SNB-75 CNS
[47] = system: SR leukemia
[48] = system: SW-620 colon
[49] = system: T-47D breast
[50] = system: TK-10 renal
[51] = system: U251 CNS
[52] = system: UACC-257 melanoma
[53] = system: UACC-62 melanoma
[54] = system: UO-31 renal

Compound: Clc1cccc(/C=N/Nc2nc(N/N=C/c3cccc(Cl)c3)nc(N3CCOCC3)n2)c1
- GI50 [1]: 1.07 µM
- TGI [1]: 4.12 µM
- GI50 [2]: 1.67 µM
- TGI [2]: 5.65 µM
- GI50 [3]: 3.57 µM
- TGI [3]: > 100 µM
- GI50 [4]: 2.11 µM
- TGI [4]: > 100 µM
- GI50 [5]: 3.22 µM
- TGI [5]: > 100 µM
- GI50 [6]: 2.77 µM
- TGI [6]: > 100 µM
- GI50 [7]: 1.34 µM
- TGI [7]: 6.6 µM
- GI50 [8]: 1.23 µM
- TGI [8]: > 100 µM
- GI50 [9]: 2.62 µM
- TGI [9]: > 100 µM
- GI50 [10]: 4.23 µM
- TGI [10]: > 100 µM
- GI50 [11]: 2.73 µM
- TGI [11]: > 100 µM
- GI50 [12]: 1.27 µM
- TGI [12]: > 100 µM
- GI50 [13]: 0.505 µM
- TGI [13]: 3.08 µM
- GI50 [14]: 4.67 µM
- TGI [14]: > 100 µM
- GI50 [15]: 2.17 µM
- TGI [15]: > 100 µM
- GI50 [16]: 3.76 µM
- TGI [16]: > 100 µM
- GI50 [17]: 1.34 µM
- TGI [17]: > 100 µM
- GI50 [18]: 4.61 µM
- TGI [18]: > 100 µM
- GI50 [19]: 0.699 µM
- TGI [19]: 7.65 µM
- GI50 [20]: 3.61 µM
- TGI [20]: > 100 µM
- GI50 [21]: 2.99 µM
- TGI [21]: > 100 µM
- GI50 [22]: 3.08 µM
- TGI [22]: > 100 µM
- GI50 [23]: 2.86 µM
- TGI [23]: 5.57 µM
- GI50 [24]: 2.47 µM
- TGI [24]: > 100 µM
- GI50 [25]: 9.16 µM
- TGI [25]: > 100 µM
- GI50 [26]: 4.24 µM
- TGI [26]: > 100 µM
- GI50 [27]: 1.49 µM
- TGI [27]: 4.4 µM
- GI50 [28]: 4.05 µM
- TGI [28]: > 100 µM
- GI50 [29]: 3.47 µM
- TGI [29]: > 100 µM
- GI50 [30]: 3.21 µM
- TGI [30]: > 100 µM
- GI50 [31]: 3.39 µM
- TGI [31]: > 100 µM
- GI50 [32]: 2.87 µM
- TGI [32]: 59.9 µM
- GI50 [33]: 5.82 µM
- TGI [33]: > 100 µM
- GI50 [34]: > 100 µM
- TGI [34]: > 100 µM
- GI50 [35]: 4.58 µM
- TGI [35]: > 100 µM
- GI50 [36]: 2.91 µM
- TGI [36]: > 100 µM
- GI50 [37]: 1.9 µM
- TGI [37]: 6.79 µM
- GI50 [38]: 1 µM
- TGI [38]: 3.51 µM
- GI50 [39]: 5.1 µM
- TGI [39]: > 100 µM
- GI50 [40]: 4.13 µM
- TGI [40]: > 100 µM
- GI50 [41]: 5.39 µM
- TGI [41]: > 100 µM
- GI50 [42]: 2.86 µM
- TGI [42]: 7.74 µM
- GI50 [43]: 1.72 µM
- TGI [43]: 3.44 µM
- GI50 [44]: 4.99 µM
- TGI [44]: > 100 µM
- GI50 [45]: 37 µM
- TGI [45]: > 100 µM
- GI50 [46]: 3.33 µM
- TGI [46]: > 100 µM
- GI50 [47]: 0.329 µM
- TGI [47]: 2.58 µM
- GI50 [48]: 1.78 µM
- TGI [48]: > 100 µM
- GI50 [49]: 3.54 µM
- TGI [49]: > 100 µM
- GI50 [50]: 5.89 µM
- TGI [50]: > 100 µM
- GI50 [51]: 3.49 µM
- TGI [51]: > 100 µM
- GI50 [52]: 2.47 µM
- TGI [52]: 6.52 µM
- GI50 [53]: 4.54 µM
- TGI [53]: > 100 µM
- GI50 [54]: 1.61 µM
- TGI [54]: > 100 µM
